Source: paper PMC11990191, “Pharmacochemical Studies of Synthesized Coumarin–Isoxazole–Pyridine Hybrids” (Molecules, 2025)

Target: T1, soybean lipoxygenase (sLOX) (Glycine max, UniProt P08170)
T1 construct: gene LOX1.1
T1 sequence (P08170 1-839): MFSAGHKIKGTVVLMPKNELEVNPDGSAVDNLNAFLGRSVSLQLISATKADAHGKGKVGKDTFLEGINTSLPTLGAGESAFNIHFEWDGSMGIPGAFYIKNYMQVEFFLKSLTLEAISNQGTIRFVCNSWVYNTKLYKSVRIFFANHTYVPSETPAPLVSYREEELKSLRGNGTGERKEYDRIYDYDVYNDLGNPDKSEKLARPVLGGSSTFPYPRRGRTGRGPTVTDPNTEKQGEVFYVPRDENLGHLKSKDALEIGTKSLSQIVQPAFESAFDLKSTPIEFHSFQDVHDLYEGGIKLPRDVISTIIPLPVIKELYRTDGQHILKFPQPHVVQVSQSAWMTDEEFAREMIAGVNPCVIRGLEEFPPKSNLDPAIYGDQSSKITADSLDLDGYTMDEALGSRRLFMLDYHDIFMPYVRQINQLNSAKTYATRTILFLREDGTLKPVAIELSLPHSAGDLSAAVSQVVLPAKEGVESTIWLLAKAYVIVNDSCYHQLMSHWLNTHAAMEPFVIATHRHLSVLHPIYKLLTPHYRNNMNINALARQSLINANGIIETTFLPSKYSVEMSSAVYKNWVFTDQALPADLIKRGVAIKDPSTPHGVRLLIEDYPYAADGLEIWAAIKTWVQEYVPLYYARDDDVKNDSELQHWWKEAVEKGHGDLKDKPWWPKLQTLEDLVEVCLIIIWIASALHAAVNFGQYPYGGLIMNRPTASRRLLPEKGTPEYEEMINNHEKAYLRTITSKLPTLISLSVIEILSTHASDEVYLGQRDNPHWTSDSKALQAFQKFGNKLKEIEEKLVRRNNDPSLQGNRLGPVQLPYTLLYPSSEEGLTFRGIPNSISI
Test: UV absorbance enzyme assay at […] nm, sodium linoleate substrate, pH […]
Assay type: biochemical
Conditions: read-out: LOX(%)/ IC50

IC50 | Compound
10 µM | O=c1ccc2ccc(OCc3cc(-c4cccnc4)no3)cc2o1 [7a, 7-((3-(Pyridin-3-yl)isoxazol-5-yl)methoxy)-2H-chromen-2-one]
5 µM | O=c1cc(OCc2cc(-c3ccncc3)no2)c2ccccc2o1 [13a, 4-((3-(Pyridin-4-yl)isoxazol-5-yl)methoxy)-2H-chromen-2-one]
